Test results published in patent US6313090A, “Methods for treating parasitic infection using thiopeptides” (The United States of America as represented by the …, priority 2000, dated 2001).

How the values were obtained:
MDBKF5D2 cell monolayers = assay: Toxicity testing assay (MTS/PMS, OD 490 nm); assay type: cell-based
Experimental: (§1) Toxicity Testing Assay. 200 μl of medium containing drug at the above-mentioned concentrations and positive control preparations [paromomycin/DMSO (2 mg/ml/0.2%)] were introduced into two wells of a 96 well plate containing confluent MDBKF5D2 cell monolayers (ATCC accession number CCL-22) infected with intact C. parvum GCH1 oocysts (5.0×10^4 per well) (43) and two wells without monolayers. The drug was incubated on the monolayers at 37° C. and 8% CO2. At 48 hours, MTS (Owen's solution) and PMS were added to each well at concentrations of 333 μg/ml and 25 μM respectively. The plate was returned to the incubator in the dark to develop for two hours. At two hours, 100 μl of each supernatant was transferred to a new microtiter plate and the optical density (OD) was read in an ELISA plate reader at 490 nm.
(§2) Percent toxicity was calculated by subtracting the mean drug OD from the medium OD, divided by the medium OD, all of which was then multiplied by 100, as shown in the equation below. Cytotoxicity scores were assigned as follows: 0-5% toxicity=0, 6-25% toxicity=1, 26-50% toxicity=2, 51-75% toxicity=3, and 76-100% toxicity=4. As a standard, cytotoxicity scores of 0 or, 1 were considered acceptable levels of toxicity. Toxicity scores of 2, 3, or 4 were considered as high levels of toxicity to the cell monolayer. [formula]
as §1, with “containing drugs” for “containing drug”, “monolayers” for “monolayers (ATCC accession number CCL-22)”, “well)” for “well) (43)”, “and 25μM” for “and 25 μM”
as §2, with “or” for “or,”
as §1, with “monolayers” for “monolayers (ATCC accession number CCL-22)”, “well)” for “well) (43)”, “25μM” for “25 μM”

C. parvum = assay: In vivo testing, SCID mice with acute C. parvum infection; set-up: species or system Cryptospordium parvum
Experimental: SCID mice (Taconic Farms, Germantown, N.Y.), preconditioned with monoclonal antibodies to interferon as described (41), were given an acute infection of C. parvum (10^7 oocysts given orally). A total of five mice in two groups were used. One group received 500 mg/kg/day (in two doses of 250 mg/kg) of thiostrepton six days post-infection and the other group received a placebo. Treatment lasted ten days and oocyst shedding was measured by counting the number of oocysts in 30 fields under high power microscopy of acid-fast stained fecal smears and calculating the mean for each group as described (41). […] Mucosal scores describe the extent of mucosal infection detected in formalin-fixedsections of tissue samples from various gut sites (pyloric region of stomach, liver, gallbladder, mid-small intestine, terminal ileum, cecum and colon) taken during necropsy. Scoring was as follows: 0 (no infection) to 5 (maximal infection) and was expressed as the combined score of the number of gut sites examined.

[1] = Table 4 Washed at 4 hours, 100 μg/ml
[2] = Table 4 Washed at 4 hours, 200 μg/ml
[3] = Table 4 Washed at 4 hours, 400 μg/ml
[4] = Table 4 Washed at 4 hours, 800 μg/ml
[5] = Table 5, 800 μg/ml, drug added at 0 hrs
[6] = Table 5, 800 μg/ml, drug added at 2 hrs
[7] = Table 5, 800 μg/ml, drug added at 4 hrs
[8] = Table 5, 800 μg/ml, drug added at 8 hrs
[9] = Table 5, 800 μg/ml, drug added at 24 hrs

C=C(NC(=O)C(=C)NC(=O)c1csc(C2=N[C@@H]3c4csc(n4)[C@H]4NC(=O)c5csc(n5)[C@H]([C@](C)(O)[C@@H](C)O)NC(=O)[C@H]5CSC(=N5)/C(=C/C)NC(=O)[C@H]([C@@H](C)O)NC(=O)c5csc(n5)[C@]3(CC2)NC(=O)[C@H](C)NC(=O)C(=C)NC(=O)[C@H](C)NC(=O)[C@H]([C@@H](C)CC)N[C@@H]2C=Cc3c([C@H](C)O)cc(nc3[C@H]2O)C(=O)O[C@@H]4C)n1)C(N)=O [Thiostrepton, thiostrepton]
Tox. O.D. (MDBKF5D2 cell monolayers; Table 1, 1 μg/ml): .941
Toxicity Percent (MDBKF5D2 cell monolayers; Table 1, 1 μg/ml): 14.50%
Toxicity Score (MDBKF5D2 cell monolayers; Table 1, 1 μg/ml): 1 (6-25% toxicity=1)
Tox. O.D. (MDBKF5D2 cell monolayers; Table 1, 10 μg/ml): .991
Toxicity Percent (MDBKF5D2 cell monolayers; Table 1, 10 μg/ml): 9.95%
Toxicity Score (MDBKF5D2 cell monolayers; Table 1, 10 μg/ml): 1 (6-25% toxicity=1)
Tox. O.D. (MDBKF5D2 cell monolayers; Table 1, 100 μg/ml): .994
Toxicity Percent (MDBKF5D2 cell monolayers; Table 1, 100 μg/ml): 9.64%
Toxicity Score (MDBKF5D2 cell monolayers; Table 1, 100 μg/ml): 1 (6-25% toxicity=1)
Tox. O.D. (MDBKF5D2 cell monolayers; Table 1, .1 μg/ml): .912
Toxicity Percent (MDBKF5D2 cell monolayers; Table 1, .1 μg/ml): 17.14%
Toxicity Score (MDBKF5D2 cell monolayers; Table 1, .1 μg/ml): 1 (6-25% toxicity=1)
Tox. O.D. (MDBKF5D2 cell monolayers; Table 2, 100 μg/ml): .915
Toxicity Percent (MDBKF5D2 cell monolayers; Table 2, 100 μg/ml): 9.14%
Toxicity Score (MDBKF5D2 cell monolayers; Table 2, 100 μg/ml): 1 (6-25% toxicity=1)
Tox. O.D. (MDBKF5D2 cell monolayers; Table 2, 200 μg/ml): .820
Toxicity Percent (MDBKF5D2 cell monolayers; Table 2, 200 μg/ml): 18.62%
Toxicity Score (MDBKF5D2 cell monolayers; Table 2, 200 μg/ml): 1 (6-25% toxicity=1)
Tox. O.D. (MDBKF5D2 cell monolayers; Table 2, 400 μg/ml): .799
Toxicity Percent (MDBKF5D2 cell monolayers; Table 2, 400 μg/ml): 20.71%
Toxicity Score (MDBKF5D2 cell monolayers; Table 2, 400 μg/ml): 1 (6-25% toxicity=1)
Tox. O.D. (MDBKF5D2 cell monolayers; Table 2, 800 μg/ml): .676
Toxicity Percent (MDBKF5D2 cell monolayers; Table 2, 800 μg/ml): 32.87%
Toxicity Score (MDBKF5D2 cell monolayers; Table 2, 800 μg/ml): 2 (26-50% toxicity=2)
Tox. O.D. (MDBKF5D2 cell monolayers; Table 3 Unwashed, 100 μg/ml): .969
Toxicity Percent (MDBKF5D2 cell monolayers; Table 3 Unwashed, 100 μg/ml): 7.10%
Toxicity Score (MDBKF5D2 cell monolayers; Table 3 Unwashed, 100 μg/ml): 1 (6-25% toxicity=1)
Tox. O.D. (MDBKF5D2 cell monolayers; Table 3 Unwashed, 200 μg/ml): .827
Toxicity Percent (MDBKF5D2 cell monolayers; Table 3 Unwashed, 200 μg/ml): 20.67%
Toxicity Score (MDBKF5D2 cell monolayers; Table 3 Unwashed, 200 μg/ml): 1 (6-25% toxicity=1)
Tox. O.D. (MDBKF5D2 cell monolayers; Table 3 Unwashed, 400 μg/ml): .788
Toxicity Percent (MDBKF5D2 cell monolayers; Table 3 Unwashed, 400 μg/ml): 24.41%
Toxicity Score (MDBKF5D2 cell monolayers; Table 3 Unwashed, 400 μg/ml): 1 (6-25% toxicity=1)
Tox. O.D. (MDBKF5D2 cell monolayers; Table 3 Unwashed, 800 μg/ml): .739
Toxicity Percent (MDBKF5D2 cell monolayers; Table 3 Unwashed, 800 μg/ml): 29.11%
Toxicity Score (MDBKF5D2 cell monolayers; Table 3 Unwashed, 800 μg/ml): 2 (26-50% toxicity=2)
Tox. O.D. (MDBKF5D2 cell monolayers; [1]): .969
Toxicity Percent (MDBKF5D2 cell monolayers; [1]): 6.96%
Toxicity Score (MDBKF5D2 cell monolayers; [1]): 1 (6-25% toxicity=1)
Tox. O.D. (MDBKF5D2 cell monolayers; [2]): .827
Toxicity Percent (MDBKF5D2 cell monolayers; [2]): 20.56%
Toxicity Score (MDBKF5D2 cell monolayers; [2]): 1 (6-25% toxicity=1)
Tox. O.D. (MDBKF5D2 cell monolayers; [3]): .788
Toxicity Percent (MDBKF5D2 cell monolayers; [3]): 24.30%
Toxicity Score (MDBKF5D2 cell monolayers; [3]): 1 (6-25% toxicity=1)
Tox. O.D. (MDBKF5D2 cell monolayers; [4]): .739
Toxicity Percent (MDBKF5D2 cell monolayers; [4]): 29.01%
Toxicity Score (MDBKF5D2 cell monolayers; [4]): 2 (26-50% toxicity=2)
Tox. O.D. (MDBKF5D2 cell monolayers; [5]): .783
Toxicity Percent (MDBKF5D2 cell monolayers; [5]): 22.91%
Toxicity Score (MDBKF5D2 cell monolayers; [5]): 1 (6-25% toxicity=1)
Tox. O.D. (MDBKF5D2 cell monolayers; [6]): .577
Toxicity Percent (MDBKF5D2 cell monolayers; [6]): 43.15%
Toxicity Score (MDBKF5D2 cell monolayers; [6]): 2 (26-50% toxicity=2)
Tox. O.D. (MDBKF5D2 cell monolayers; [7]): .638
Toxicity Percent (MDBKF5D2 cell monolayers; [7]): 37.14%
Toxicity Score (MDBKF5D2 cell monolayers; [7]): 2 (26-50% toxicity=2)
Tox. O.D. (MDBKF5D2 cell monolayers; [8]): .786
Toxicity Percent (MDBKF5D2 cell monolayers; [8]): 22.56%
Toxicity Score (MDBKF5D2 cell monolayers; [8]): 1 (6-25% toxicity=1)
Tox. O.D. (MDBKF5D2 cell monolayers; [9]): .749
Toxicity Percent (MDBKF5D2 cell monolayers; [9]): 26.26%
Toxicity Score (MDBKF5D2 cell monolayers; [9]): 2 (26-50% toxicity=2)
Tox. O.D. (MDBKF5D2 cell monolayers; Table 6, 100 μg/ml): 1.348
Toxicity Percent (MDBKF5D2 cell monolayers; Table 6, 100 μg/ml): 18.15%
Toxicity Score (MDBKF5D2 cell monolayers; Table 6, 100 μg/ml): 1 (6-25% toxicity=1)
Tox. O.D. (MDBKF5D2 cell monolayers; Table 6, 200 μg/ml): 1.324
Toxicity Percent (MDBKF5D2 cell monolayers; Table 6, 200 μg/ml): 19.61%
Toxicity Score (MDBKF5D2 cell monolayers; Table 6, 200 μg/ml): 1 (6-25% toxicity=1)
Tox. O.D. (MDBKF5D2 cell monolayers; Table 6, 400 μg/ml): 1.146
Toxicity Percent (MDBKF5D2 cell monolayers; Table 6, 400 μg/ml): 30.45%
Toxicity Score (MDBKF5D2 cell monolayers; Table 6, 400 μg/ml): 2 (26-50% toxicity=2)
Tox. O.D. (MDBKF5D2 cell monolayers; Table 6, 800 μg/ml): .890
Toxicity Percent (MDBKF5D2 cell monolayers; Table 6, 800 μg/ml): 45.96%
Toxicity Score (MDBKF5D2 cell monolayers; Table 6, 800 μg/ml): 2 (26-50% toxicity=2)
toxicity to cells (MDBKF5D2 cell monolayers; in vitro, summary statement): little toxicity to cells
Mucosal score (C. parvum; 2 × 250 mg/kg, combined score of gut sites, 0 (no infection) to 5 (maximal infection) per site): 9.8
oocyst shedding compared to placebo (C. parvum; SCID mice, 500 mg/kg/day (two doses of 250 mg/kg), ten days, FIG. 1): significantly reduced oocyst shedding
Oocyst shedding, % Inhib (C. parvum; last day of 10 day treatment, 2 × 250 mg/kg): 78.9%
Oocyst shedding, Mean (C. parvum; last day of 10 day treatment, 2 × 250 mg/kg, oocysts in 30 fields of fecal smears): 11.2
